What was measured:
HeLa cells = assay: Apoptosis of HeLa cells by nuclear morphology; type: cell-based; details: 600 microMolar, 24 hours
Protocol: HeLa cell were transiently transfected with expression plasmids encoding for the listed proteins. Cell were then treated with 600 microMolar H2O2 for 24 hours. All cells were collected and examined for apoptosis (Example 5).
The inventors have shown that type I PIP kinase protects cells from ROS induced apoptosis. HeLa cells were transiently transfected with expression plasmids encoding for the listed proteins. Cells were then treated with 600 microMolar H2O2 for 24 hours. All cells were collected and examined for apoptosis. Apoptosis was determined by examining nuclear morphology of green cells (GFP Histone) after staining with a nuclear stain. Cells with fragmented nuclei were scored positive for apoptosis. […] Ectopic expression of PIP 5-K protects HeLa cells from apoptosis after H2O2 treatment. Results are in FIG. 11.

ING2 = assay: Western blot of endogenous ING2 associated with the CEF of MEL cells; type: cell-based, Murine; details: differentiated MEL cells; H2O2 500 μM, 15 minutes
Protocol: FIG. 4. A) Exponentially growing MEL cells were irradiated with either 200 J/m of UV light or 10 Gy of gamma radiation. After 30 minutes the CEF was isolated and the subjected to SDS-PAGE followed by transfer of the separated proteins to a nitrocellulose membrane. Western blotting for endogenous ING2 and histone 4 proteins was performed. Representative western blots are shown. B) Exponentially growing MEL cells were incubated in the absence or presence of N-acetyl cysteine (NAC) (5 mM) for 4 hours prior to a control irradiation or exposed to 200 J/m of UV light before the isolation of the CEF. Differentiated MEL cells were incubated in the absence or presence of H2O2 (500 μM) for 15 minutes prior to the isolation of the CEF. Proteins in the CEF were subjected to SDS-PAGE followed by transfer to a nitrocellulose membrane. Western blotting for endogenous ING2 and histone 4 proteins was performed. Representative western blots are shown. C) MEL cells were preincubated with either vehicle, wortmannin (200 nM and 5 μM) or curcumin (100 μM) were irradiated with 200 J/m of UV light. After 30 minutes the CEF was isolated and proteins were subjected to SDS-PAGE followed by transfer to a nitrocellulose membrane. Western blotting for endogenous ING2 and histone 4 proteins was performed. Representative western blots are shown. D) The CEF from transiently transfected MEL cells with either pSuper or pSuper-IIβRNAi was prepared. Proteins in the CEF were subjected to SDS-PAGE followed by transfer to a nitrocellulose membrane. […] Proteins were analysed by standard western blotting procedures employing the following antibodies: anti-tubulin and anti-flag (both from Sigma), anti-actin (Chemicon International), anti-histone 4 (Upstate Biotechnology), anti-phospho p54, anti-phospho p46, anti-phospho p38, total p54, total p46 and total p38 (all from Cell Signalling Technology) anti-ING2, anti EGFP (Clontech), anti-type II β PIP kinase, anti-GST and anti-myc (both generated in house).

OO [H2O2]
apoptosis (fragmented nuclei) (HeLa cells): induces apoptosis | ING2 translocation to the CEF (ING2): stimulated

— patent publication US20100092456A1, “METHODS OF TREATMENT” (priority 2006, published 2010)
